Experimental data from ChEMBL document CHEMBL1697781, “Assessment of the health effects of chemicals in humans: II. Construction of an adverse effects database for QSAR modeling” (Curr Drug Discov Technol, 2004).

System: Hepatotoxicity
Test: FDA HLAED, liver enzyme composite activity
Conditions: human
For GGT Increase - Index Value in this document: reference of the scale not given here.
For LDH Increase - Index Value in this document: reference of the scale not given here.

Row | SMILES | Composite Activity - Active | Composite Activity - Marginal | Composite Activity - Score
1 | N=C(N)N/N=C/c1c(Cl)cccc1Cl [GUANABENZ] | 0 | 0 | Inactive
2 | N=C(N)NC(=O)Cc1c(Cl)cccc1Cl [GUANFACINE] | 0 | 0 | Inactive
3 | O=C1CN=C(c2ccccc2)c2cc(Cl)ccc2N1CC(F)(F)F [HALAZEPAM] | 0 | 0 | Inactive
4 | C[C@H]1C[C@H]2[C@@H]3C[C@H](F)C4=CC(=O)C=C[C@]4(C)[C@@]3(F)[C@@H](O)C[C@]2(C)[C@@]1(O)C(=O)CCl [HALOBETASOL] | 0 | 0 | Inactive
5 | CN1CC[C@]23c4c5ccc(O)c4O[C@H]2C(=O)CC[C@H]3[C@H]1C5 [HYDROMORPHONE] | 0 | 0 | Inactive
6 | CCCCCCCN(CC)CCCC(O)c1ccc(NS(C)(=O)=O)cc1 (configuration not stated) [IBUTILIDE] | 0 | 0 | Inactive
7 | CC(=O)[C@]1(O)Cc2c(O)c3c(c(O)c2[C@@H](O[C@H]2C[C@H](N)[C@H](O)[C@H](C)O2)C1)C(=O)c1ccccc1C3=O [IDARUBICIN] | 0 | 0 | Inactive
8 | O=P1(NCCCl)OCCCN1CCCl (configuration not stated) [IFOSFAMIDE] | 1 | 0 | Inactive
9 | Nc1cc(-c2ccncc2)c[nH]c1=O [INAMRINONE] | 0 | 0 | Inactive

System: Hepatotoxicity
Test: FDA HLAED, alkaline phosphatase increase
Conditions: human

Row | SMILES | Alkaline Phosphatase Increase - Activity Score | Alkaline Phosphatase Increase - Index Value | Alkaline Phosphatase Increase - Number of Reports
10 | N=C(N)N/N=C/c1c(Cl)cccc1Cl [GUANABENZ] | Inactive | 0 | < 4
11 | N=C(N)NC(=O)Cc1c(Cl)cccc1Cl [GUANFACINE] | Inactive | 1 | < 4
12 | O=C1CN=C(c2ccccc2)c2cc(Cl)ccc2N1CC(F)(F)F [HALAZEPAM] | Inactive | 0 | < 4
13 | C[C@H]1C[C@H]2[C@@H]3C[C@H](F)C4=CC(=O)C=C[C@]4(C)[C@@]3(F)[C@@H](O)C[C@]2(C)[C@@]1(O)C(=O)CCl [HALOBETASOL] | Inactive | 0 | < 4
14 | CN1CC[C@]23c4c5ccc(O)c4O[C@H]2C(=O)CC[C@H]3[C@H]1C5 [HYDROMORPHONE] | Inactive | 0 | < 4
15 | CCCCCCCN(CC)CCCC(O)c1ccc(NS(C)(=O)=O)cc1 (configuration not stated) [IBUTILIDE] | Inactive | 0 | < 4
16 | CC(=O)[C@]1(O)Cc2c(O)c3c(c(O)c2[C@@H](O[C@H]2C[C@H](N)[C@H](O)[C@H](C)O2)C1)C(=O)c1ccccc1C3=O [IDARUBICIN] | Inactive | 0 | < 4
17 | O=P1(NCCCl)OCCCN1CCCl (configuration not stated) [IFOSFAMIDE] | Inactive | 5 | < 4
18 | Nc1cc(-c2ccncc2)c[nH]c1=O [INAMRINONE] | Inactive | 2.2 | < 4

System: Hepatotoxicity
Test: FDA HLAED, serum glutamic oxaloacetic transaminase (SGOT) increase
Conditions: human

Row | SMILES | SGOT Increase - Activity Score | SGOT Increase - Index Value | SGOT Increase - Number of Reports
19 | N=C(N)N/N=C/c1c(Cl)cccc1Cl [GUANABENZ] | Inactive | 0.9 | < 4
20 | N=C(N)NC(=O)Cc1c(Cl)cccc1Cl [GUANFACINE] | Inactive | 1.3 | >= 4
21 | O=C1CN=C(c2ccccc2)c2cc(Cl)ccc2N1CC(F)(F)F [HALAZEPAM] | Inactive | 0 | < 4
22 | C[C@H]1C[C@H]2[C@@H]3C[C@H](F)C4=CC(=O)C=C[C@]4(C)[C@@]3(F)[C@@H](O)C[C@]2(C)[C@@]1(O)C(=O)CCl [HALOBETASOL] | Inactive | 0 | < 4
23 | CN1CC[C@]23c4c5ccc(O)c4O[C@H]2C(=O)CC[C@H]3[C@H]1C5 [HYDROMORPHONE] | Inactive | 0 | < 4
24 | CCCCCCCN(CC)CCCC(O)c1ccc(NS(C)(=O)=O)cc1 (configuration not stated) [IBUTILIDE] | Inactive | 0 | < 4
25 | CC(=O)[C@]1(O)Cc2c(O)c3c(c(O)c2[C@@H](O[C@H]2C[C@H](N)[C@H](O)[C@H](C)O2)C1)C(=O)c1ccccc1C3=O [IDARUBICIN] | Inactive | 0 | < 4
26 | O=P1(NCCCl)OCCCN1CCCl (configuration not stated) [IFOSFAMIDE] | Active | 17.5 | >= 4
27 | Nc1cc(-c2ccncc2)c[nH]c1=O [INAMRINONE] | Inactive | 6.6 | < 4

System: Hepatotoxicity
Test: FDA HLAED, serum glutamic pyruvic transaminase (SGPT) increase
Conditions: human

Row | SMILES | SGPT Increase - Activity Score | SGPT Increase - Index Value | SGPT Increase - Number of Reports
28 | N=C(N)N/N=C/c1c(Cl)cccc1Cl [GUANABENZ] | Inactive | 0.6 | < 4
29 | N=C(N)NC(=O)Cc1c(Cl)cccc1Cl [GUANFACINE] | Inactive | 0.3 | < 4
30 | O=C1CN=C(c2ccccc2)c2cc(Cl)ccc2N1CC(F)(F)F [HALAZEPAM] | Inactive | 0 | < 4
31 | C[C@H]1C[C@H]2[C@@H]3C[C@H](F)C4=CC(=O)C=C[C@]4(C)[C@@]3(F)[C@@H](O)C[C@]2(C)[C@@]1(O)C(=O)CCl [HALOBETASOL] | Inactive | 0 | < 4
32 | CN1CC[C@]23c4c5ccc(O)c4O[C@H]2C(=O)CC[C@H]3[C@H]1C5 [HYDROMORPHONE] | Inactive | 0 | < 4
33 | CCCCCCCN(CC)CCCC(O)c1ccc(NS(C)(=O)=O)cc1 (configuration not stated) [IBUTILIDE] | Inactive | 0 | < 4
34 | CC(=O)[C@]1(O)Cc2c(O)c3c(c(O)c2[C@@H](O[C@H]2C[C@H](N)[C@H](O)[C@H](C)O2)C1)C(=O)c1ccccc1C3=O [IDARUBICIN] | Inactive | 0 | < 4
35 | O=P1(NCCCl)OCCCN1CCCl (configuration not stated) [IFOSFAMIDE] | Inactive | 7.5 | < 4
36 | Nc1cc(-c2ccncc2)c[nH]c1=O [INAMRINONE] | Inactive | 4.4 | < 4

System: Hepatotoxicity
Test: FDA HLAED, lactate dehydrogenase (LDH) increase
Conditions: human

Row | SMILES | LDH Increase - Activity Score | LDH Increase - Index Value | LDH Increase - Number of Reports
37 | N=C(N)N/N=C/c1c(Cl)cccc1Cl [GUANABENZ] | Inactive | 0.3 | < 4
38 | N=C(N)NC(=O)Cc1c(Cl)cccc1Cl [GUANFACINE] | Inactive | 0.6 | < 4
39 | O=C1CN=C(c2ccccc2)c2cc(Cl)ccc2N1CC(F)(F)F [HALAZEPAM] | Inactive | 0 | < 4
40 | C[C@H]1C[C@H]2[C@@H]3C[C@H](F)C4=CC(=O)C=C[C@]4(C)[C@@]3(F)[C@@H](O)C[C@]2(C)[C@@]1(O)C(=O)CCl [HALOBETASOL] | Inactive | 0 | < 4
41 | CN1CC[C@]23c4c5ccc(O)c4O[C@H]2C(=O)CC[C@H]3[C@H]1C5 [HYDROMORPHONE] | Inactive | 0 | < 4
42 | CCCCCCCN(CC)CCCC(O)c1ccc(NS(C)(=O)=O)cc1 (configuration not stated) [IBUTILIDE] | Inactive | 0 | < 4
43 | CC(=O)[C@]1(O)Cc2c(O)c3c(c(O)c2[C@@H](O[C@H]2C[C@H](N)[C@H](O)[C@H](C)O2)C1)C(=O)c1ccccc1C3=O [IDARUBICIN] | Inactive | 0 | < 4
44 | O=P1(NCCCl)OCCCN1CCCl (configuration not stated) [IFOSFAMIDE] | Inactive | 7.5 | < 4
45 | Nc1cc(-c2ccncc2)c[nH]c1=O [INAMRINONE] | Inactive | 2.2 | < 4

System: Hepatotoxicity
Test: FDA HLAED, gamma-glutamyl transferase (GGT) increase
Conditions: human

Row | SMILES | GGT Increase - Activity Score | GGT Increase - Index Value | GGT Increase - Number of Reports
46 | N=C(N)N/N=C/c1c(Cl)cccc1Cl [GUANABENZ] | Inactive | 0 | < 4
47 | N=C(N)NC(=O)Cc1c(Cl)cccc1Cl [GUANFACINE] | Inactive | 0 | < 4
48 | O=C1CN=C(c2ccccc2)c2cc(Cl)ccc2N1CC(F)(F)F [HALAZEPAM] | Inactive | 0 | < 4
49 | C[C@H]1C[C@H]2[C@@H]3C[C@H](F)C4=CC(=O)C=C[C@]4(C)[C@@]3(F)[C@@H](O)C[C@]2(C)[C@@]1(O)C(=O)CCl [HALOBETASOL] | Inactive | 0 | < 4
50 | CN1CC[C@]23c4c5ccc(O)c4O[C@H]2C(=O)CC[C@H]3[C@H]1C5 [HYDROMORPHONE] | Inactive | 0 | < 4
51 | CCCCCCCN(CC)CCCC(O)c1ccc(NS(C)(=O)=O)cc1 (configuration not stated) [IBUTILIDE] | Inactive | 0 | < 4
52 | CC(=O)[C@]1(O)Cc2c(O)c3c(c(O)c2[C@@H](O[C@H]2C[C@H](N)[C@H](O)[C@H](C)O2)C1)C(=O)c1ccccc1C3=O [IDARUBICIN] | Inactive | 0 | < 4
53 | O=P1(NCCCl)OCCCN1CCCl (configuration not stated) [IFOSFAMIDE] | Inactive | 0 | < 4
54 | Nc1cc(-c2ccncc2)c[nH]c1=O [INAMRINONE] | Inactive | 0 | < 4
